According to patent publication US20190298715A1, “IMMUNE EFFECTOR CELL THERAPIES WITH ENHANCED EFFICACY” (Novartis AG, priority 2016, published 2019):
Numbering of substitutions follows the chain as printed. Blank lines part the entries; values can stand above or below the molecule they belong to.

Columns and labels:
full-length LSD1 = target: T1, full-length LSD1 (Homo sapiens, UniProt O60341); test: FL-LSD1 LC-MS assay; format: biochemical; settings: 0.4 nM FL-LSD1, 0.25 μM FAD, 0.5 μM H3K4me1 peptide, 60 min; read-out: LCMS IC50 (LSD1 IC50 as measured by LCMS)
T1 construct: the full-length LSD1 and 0.5 μM FAD in reaction buffer
Procedure: Representative compounds of the present disclosure were serially and separately diluted 3-fold in DMSO to obtain a total of twelve concentrations. […] A 5 μL solution of 1 μM of the peptide substrate H3K4me1 (histone H3[1-21]-biotin) in reaction buffer was added to each initiate reaction. […] The conversion ratio of H3K4me1 substrate to the H3K4me0 product was calculated by dividing the peak area of the H3K4me0 peptide by the total peak area of all those two peptides on the assumption that the ionization efficiency of those peptides is the same. The data were then fit to a dose response equation using the program Helios to get the IC50 values of the test compound.

human T cells = test: T cell phenotype after anti-CD3/CD28 expansion with LSD1 shRNA (flow cytometry); format: cell-based; settings: 10 days anti-CD3/CD28 expansion, transfected with DNA encoding shRNA
Procedure: Flow cytometry was performed on a four laser Fortessa (Becton-Dickinson).
Inhibition of LSD1 by shRNA promotes the expansion of TSCM cells T cells were isolated by negative selection and expanded with anti-CD3/CD28 beads at a 3:1 ratio for 10 days. On day 1, T cells were transduced with lentiviral expression vectors containing LSD1 shRNA targeting sequences that co-expressed the fluorescent protein mCherry. Following expansion, T cell phenotypes of mCherry+ T cells were assessed by flow cytometry.

Molecule: CS(=O)(=O)c1ccc(-c2cc(-c3cc(C#N)c(N4CCNCC4)[nH]3)ccc2Cl)cc1 [5-(6-chloro-4′-(methylsulfonyl)biphenyl-3-yl)-2-(piperazin-1-yl)-1H-pyrrole-3-carbonitrile]
- IC50 (full-length LSD1): 12 nM

Molecule: LSD1 2: shRNA to LSD1, encoded by SEQ ID NO: 127 (DNA CAGAAGGCCTAGACATTAAACCTCGAGGTTTAATGTCTAGGCCTTCTGTTTTTTGA; the letters are possibly those of the target site)
- percentage of CD4+ T cells having the TSCM (CD45RA+CD62L+CCR7+CD27+CD95+) phenotype (human T cells): enriched in TSCM
- percentage of CD8+ T cells having the TSCM (CD45RA+CD62L+CCR7+CD27+CD95+) phenotype (human T cells): ~50%

B1: LSD1 1A: shRNA to LSD1, encoded by SEQ ID NO: 125 (nucleic acid)
DNA: CGGTTGCTAGAAGCTACATCTGTTAATATTCATAGCAGATGTAGCTTCTAGCAACCGTTTTTTGA
- percentage of CD4+ T cells having the TSCM (CD45RA+CD62L+CCR7+CD27+CD95+) phenotype (human T cells): enriched in TSCM
- percentage of CD8+ T cells having the TSCM (CD45RA+CD62L+CCR7+CD27+CD95+) phenotype (human T cells): ~50%

B2: LSD1 1B: shRNA to LSD1, encoded by SEQ ID NO: 126 (nucleic acid)
DNA: B1 DNA with C14T, C20T
modifications: the letters are possibly those of the target site
- percentage of CD4+ T cells having the TSCM (CD45RA+CD62L+CCR7+CD27+CD95+) phenotype (human T cells): up to 20%
- percentage of CD8+ T cells having the TSCM (CD45RA+CD62L+CCR7+CD27+CD95+) phenotype (human T cells): ~50%

Results, then the molecule that gave them:

- IC50 (full-length LSD1): 9 nM
Molecule: CN(C)C1CCN(S(=O)(=O)c2ccc(-n3ncc4c(-c5ccc(C6CCNCC6)cc5)cccc43)cc2)CC1 [N,N-dimethyl-1-((4-(4-(4-(piperidin-4-yl)phenyl)-1H-indazol-1-yl)phenyl)sulfonyl)piperidin-4-amine]

- IC50 (full-length LSD1): 5 nM
Molecule: COc1ccc(-n2cc(-c3cccc(N)c3C)c3cc(C#N)c(C)cc32)cc1 [NVS Compound 2, 3-(3-amino-2-methylphenyl)-1-(4-methoxyphenyl)-6-methyl-1H-indole-5-carbonitrile]
